Laboratory results from PMC3369921, “Ecto-5′-Nucleotidase: A Candidate Virulence Factor in Streptococcus sanguinis Experimental Endocarditis” (PLoS ONE, 2012).

Molecular target: T1, ecto-5′-nucleotidase (Nt5e) (Streptococcus sanguinis, UniProt I3RY26)
T1 construct: native enzyme on whole cells of S. sanguinis strain 133-79
Assay: whole-cell AMPase activity (phosphate release) dose-inhibition and Michaelis-Menten analysis
Assay type: cell-based

T1 sequence (I3RY26 entry or part of it): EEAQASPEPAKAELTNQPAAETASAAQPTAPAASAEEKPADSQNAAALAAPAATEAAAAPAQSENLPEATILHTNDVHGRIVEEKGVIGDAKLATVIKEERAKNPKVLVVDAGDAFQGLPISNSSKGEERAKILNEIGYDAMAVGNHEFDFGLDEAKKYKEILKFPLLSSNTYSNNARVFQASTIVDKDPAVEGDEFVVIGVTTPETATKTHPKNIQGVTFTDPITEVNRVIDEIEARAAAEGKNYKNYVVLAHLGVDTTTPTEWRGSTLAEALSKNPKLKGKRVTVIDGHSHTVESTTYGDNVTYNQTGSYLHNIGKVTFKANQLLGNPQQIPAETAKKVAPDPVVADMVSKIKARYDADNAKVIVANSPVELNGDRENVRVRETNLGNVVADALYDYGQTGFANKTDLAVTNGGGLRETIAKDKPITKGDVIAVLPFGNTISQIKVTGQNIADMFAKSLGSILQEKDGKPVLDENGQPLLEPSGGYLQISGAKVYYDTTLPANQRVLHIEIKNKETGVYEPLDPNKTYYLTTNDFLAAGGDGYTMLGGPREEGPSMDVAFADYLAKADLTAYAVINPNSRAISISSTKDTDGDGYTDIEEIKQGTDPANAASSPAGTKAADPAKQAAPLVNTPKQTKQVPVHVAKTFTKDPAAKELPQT

For `Nc1ncnc2c1ncn2[C@@H]1O[C@H](COP(=O)(O)CP(=O)(O)O)[C@@H](O)[C@H]1O` [APCP], the IC50 was 8.8 ± 3.8 µM.
